We go through one compound from patent US7855297B2, “Amide derivatives and medicinal use thereof” (Mitsubishi Tanabe Pharma Corporation, priority 2000, dated 2010).

Data set [1] deals with C5a stimulated neutrophil. The experiment in a line: Production of reactive oxygen species in C5a stimulated neutrophil. In kind it is cell-based. The conditions noted are these: human neutrophils, C5a 3 nmol/L, luminol luminescence; read-out: IC50 value, concentration at which production of reactive oxygen species in C5a stimulated neutrophil is inhibited by 50%. The method, then:
A neutrophil fraction was separately taken from human peripheral venous blood using Lympholyte-poly (Cedarlane), and suspended in Hank's Balanced Salt Solution (HBSS, GIBCO BRL) containing 1% fetal bovine serum (FBS) and 1 mmol/L of luminol (Wako Pure Chemical Industries, Ltd.). Reactive oxygen species was measured using a luminometer (MicroLumat, Berthold) for 96 well plate. […] Then, 25 μL of C5a (final concentration 3 nmol/L) was added and luminescence produced by the reaction of the luminol and the reactive oxygen species was measured with the lapse of time for 15 min. The rate (% inhibition) of inhibition of the production of reactive oxygen species in C5a stimulated neutrophil by the test compound was calculated by the following formula, wherein the peak value of the production of reactive oxygen species derived by C5a without addition of the test compound is Max, the peak value of the production of reactive oxygen species without addition of the test compound and without C5a stimulation is Min, and the peak value of the production of reactive oxygen species derived by C5a with the addition of the test compound is Test. % Inhibition=100−[(Test-Min)/(Max-Min)]×100 […]

The test system of data set [2] is C5a-stimulated neutrophil. Kind of data set: Migrating ability of C5a-stimulated neutrophil. Type of data set: cell-based. The conditions noted are these: 1.5 h, human neutrophils, C5a 100 pmol/L, 90 min, read-out: IC50 value, concentration at which migration of C5a-stimulated neutrophil is inhibited by 50%. As to the method:
A neutrophil fraction was separately taken from human peripheral venous blood using Lympholyte-poly (Cedarlane) and suspended in RPMI 1640 medium (GIBCO BRL) supplemented with 0.1% bovine serum albumin (BSA). To. this neutrophil fraction (5×10^6 cells/mL) was added Calcein-AM (final concentration 5 μM, FUNAKOSHI), and the mixture was incubated at 37° C. for 30 min. The cells were washed by centrifugation and suspended to a concentration of 1×10^6 cells/mL. The migration was evaluated by adding neutrophils to chemotaxicell (pore size: 3 μm, KURABO) and measuring the neutrophils that migrated outside the chemotaxicell. First, 100 pmol/L of C5a solution was added to 24 well plate (500 μL/well) and chemotaxicell was set in the well. […] The fluorescent intensity of each well was measured by Cyto Fluor II (Ex: 485, Em: 530). The rate (% inhibition) of the inhibition of migration of C5a-stimulated neutrophil by the test compound was calculated by the following formula, wherein the fluorescence intensity of neutrophil that migrated by C5a stimulation without addition of the test compound is Max, the fluorescent intensity of neutrophil that migrated without addition of test compound and without C5a stimulation is Min, and the fluorescent intensity of neutrophil that migrated by C5a stimulation with the addition of the test compound is Test. % Inhibition=100−[(Test-Min)/(Max-Min)]×100 […]

In data set [3] the test system is C5a stimulated neutrophil. The experiment in a line: Increase of intracellular Ca2+ concentration of C5a stimulated neutrophil. Type of data set: cell-based. Conditions: human neutrophils. As to the method: A neutrophil fraction was separately taken from human peripheral venous blood using Lympholyte-poly (Cedarlane), and suspended in Hank's Balanced Salt Solution (HBSS, GIBCO BRL) supplemented with 1% fetal bovine serum (FBS). Then, Fura 2-AM (final concentration 5 μM, DOJINDO) was added to the neutrophil fraction (5×10^6 cells/mL), and the mixture was incubated at 37° C. for 40 min. The cells were washed by centrifugation and suspended to the concentration of 1×10^6 cells/mL. The intracellular Ca^2+ concentration was measured using a spectrophotofluorometer (CAF-110, JASCO Corporation), and calculated from the ratio (Ex340 value/Ex380 value) of fluorescent intensities at 500 nm upon excitation at 340 nm and 380 nm, the former being Ex340 value, the latter being Ex380 value. […] Then, Triton X-100 (final concentration 0.2%) was added and the cells were dissolved, and sb2 value, which was the […] then, and Rmax value, which was the Ex340 value/Ex380 value then, was measured. Then, EGTA (final concentration 3 mmol/L) was added and sf2 value, which was the […] then, and Rmin value, which was the Ex340/Ex380 value then, was measured. From these measurement results, the intracellular Ca^2+ concentration was calculated from the following formula. […]

For the compound `CC(C)c1ccc(N(Cc2ccc(N(C)C)cc2)C(=O)C2CCCc3ccccc32)cc1` (centres unmarked) [Example 4, N-[(4-dimethylaminophenyl)methyl]-N-(4-isopropylphenyl)-1,2,3,4-tetrahydronaphthalene-1-carboxamide], the melting point was found to be 121 °C. In data set [1], the IC50 turned out to be 10 nM. In addition, in data set [2], the IC50 was 100 nM. The “agonistic action (increase in intracellular Ca2+ by the compound alone)” value in data set [3] (compound 3 μmol/L) is “did not induce an increase in intracellular Ca^2+ and the agonistic action was not found”. For the same compound, in data set [3] (recombinant human C5a 100 pmol/L, read-out: IC50 value, concentration at which increase in intracellular Ca2+ concentration of C5a-stimulated neutrophil is inhibited by 50%), the IC50 came out at 5 nM.

Usually melting point stands for the temperature of the solid-liquid transition.
